The source made the active and inactive calls.
What was measured:
[1] = inhibitors of firefly luciferase expression or activity, dose response, H4 neuroglioma cells, luminescence (AID 1990); assay type: functional, cell-based
BJ [2] = experiment: cytotoxicity toward BJ-TERT fibroblasts, dose response, cell-based, RAS-independent, luminescence (AID 1933); assay type: functional; conditions: Homo sapiens
[3] = Luminescence Cell-Based Dose Response HTS to Identify Inhibitors of 5'UTR Stem-Loop Driven Prion Protein mRNA Translation in H4 Neuroglioblastoma Cells. [Related pubchem assays: 1827 (Project Summary), 1813 (Primary HTS)]; assay type: functional
Vero = experiment: host cell cytotoxicity of antiviral hits, dose response, cytotoxicity control for West Nile virus antiviral project, secondary assay (AID 1650); assay type: functional; conditions: Chlorocebus sabaeus
[4] = inhibitors of SNCA 5'UTR-driven reporter translation, confirmation, H4 neuroglioma cells, luminescence (AID 1988); assay type: functional, cell-based
BJ [5] = experiment: cells; assay type: functional, cell-based; conditions: Homo sapiens
[6] = target: Mothers against decapentaplegic homolog 3 (Homo sapiens, UniProt P84022); experiment: SMAD3 transcription factor inhibitors, dose response (AID 715); assay type: functional
BJ [7] = experiment: cytotoxicity toward BJ-TERT-LT-ST fibroblasts, dose response, cell-based, RAS-independent, luminescence (AID 1935); assay type: functional; conditions: Homo sapiens;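 also: BJ fibroblasts immortalized with TERT plus LT and ST oncogenes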
[8] = cytotoxicity toward DRD oncogenic fibroblasts, dose response, cell-based, non-viral oncogenic, luminescence (AID 1934); assay type: functional; conditions: Homo sapiens
HEK293 = experiment: inhibitors of LMP1-driven NF-kB reporter, dose response, cell-based, HEK293, luciferase, cherry-pick (AID 588343); assay type: functional; conditions: Homo sapiens
[9] = target: T1, Apoptotic protease-activating factor 1 (Homo sapiens, UniProt O14727); assay type: functional
T1 sequence (O14727 whole entry): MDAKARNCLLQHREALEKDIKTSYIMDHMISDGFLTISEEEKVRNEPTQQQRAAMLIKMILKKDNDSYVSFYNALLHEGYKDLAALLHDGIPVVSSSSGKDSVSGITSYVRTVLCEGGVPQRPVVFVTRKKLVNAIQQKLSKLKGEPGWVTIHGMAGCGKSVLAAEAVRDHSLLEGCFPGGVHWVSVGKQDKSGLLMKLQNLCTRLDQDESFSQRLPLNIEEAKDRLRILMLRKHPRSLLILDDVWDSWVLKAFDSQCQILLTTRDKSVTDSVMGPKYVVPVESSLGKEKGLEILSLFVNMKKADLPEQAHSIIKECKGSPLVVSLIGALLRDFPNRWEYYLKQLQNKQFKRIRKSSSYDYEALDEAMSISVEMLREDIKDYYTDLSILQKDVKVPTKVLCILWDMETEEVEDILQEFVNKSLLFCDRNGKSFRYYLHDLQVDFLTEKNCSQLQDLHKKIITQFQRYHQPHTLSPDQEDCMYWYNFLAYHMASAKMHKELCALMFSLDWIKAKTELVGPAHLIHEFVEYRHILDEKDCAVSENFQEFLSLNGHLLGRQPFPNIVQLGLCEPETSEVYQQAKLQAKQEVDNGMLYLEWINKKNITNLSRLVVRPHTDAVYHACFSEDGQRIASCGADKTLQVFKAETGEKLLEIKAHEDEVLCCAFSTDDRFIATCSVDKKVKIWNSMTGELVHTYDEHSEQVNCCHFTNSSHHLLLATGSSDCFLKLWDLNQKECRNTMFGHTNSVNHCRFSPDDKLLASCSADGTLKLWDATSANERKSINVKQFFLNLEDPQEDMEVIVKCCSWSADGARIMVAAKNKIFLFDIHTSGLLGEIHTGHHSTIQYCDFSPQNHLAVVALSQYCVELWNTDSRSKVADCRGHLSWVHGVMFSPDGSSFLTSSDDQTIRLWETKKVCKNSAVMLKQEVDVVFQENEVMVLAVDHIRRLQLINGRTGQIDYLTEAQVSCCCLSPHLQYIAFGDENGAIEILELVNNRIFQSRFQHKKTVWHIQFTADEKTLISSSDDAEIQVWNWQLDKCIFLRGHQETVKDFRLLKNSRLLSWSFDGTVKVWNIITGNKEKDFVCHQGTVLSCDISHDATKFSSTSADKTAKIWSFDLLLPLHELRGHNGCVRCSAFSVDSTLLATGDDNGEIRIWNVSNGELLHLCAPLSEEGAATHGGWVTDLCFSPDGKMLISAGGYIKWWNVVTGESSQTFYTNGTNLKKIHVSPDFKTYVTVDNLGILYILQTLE

[10] = target: Latent membrane protein 1 (Human herpesvirus 4 (strain B95-8), UniProt P03230); experiment: TES1-eGFP NF-kB reporter inhibition versus Tet-On dsRED, dose response, selectivity assay for LMP1 NF-kB inhibitor project, imaging, HEK293T, dual-color eGFP/dsRED, cherry-picks (AID 588398); assay type: functional, cell-based
BJ [11] = experiment: cytotoxicity toward Ras-transformed BJeLR fibroblasts, dose response, cell-based, alamar blue fluorescence, cherrypicked samples (AID 2631); assay type: functional; conditions: Homo sapiens;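 also: confirmatory dose-response assay in RAS-dependent BJ fibroblasts engineered with TERT, LT and ST, with cytotoxicity read by fluorescence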
[12] = Shn3 3'UTR reporter inhibitors, dose response, cell-based, Clone20 osteoblasts, firefly luciferase, cherry-picked (AID 624132); assay type: functional;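 also: firefly luciferase luminescence from reporter carrying the Shn3 3'UTR in osteoblasts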
[13] = HepG2 cell cytotoxicity, dose response, cytotoxicity control for Shn3 inhibitor project, CellTiter-Glo, cherry-picked (AID 624134); assay type: functional, cell-based
[14] = control 3'UTR Renilla luciferase suppression, dose response, counter-screen for Shn3 inhibitor project, cell-based, Clone20-Shn3RL, cherry-picked (AID 624133); assay type: functional
[15] = inhibitors of PGC1a acetylation in cells, dose response, cell-based, cherry-picked samples (AID 720514); assay type: functional;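 also: potency may reflect raised or lowered acetylation signal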
[16] = viability loss in Mcl1-dependent HMC-1-8 cells, dose response, selectivity assay for A1 inhibitor project, cell-based, luminescence, dry powder (AID 504415); assay type: functional; conditions: Homo sapiens
[17] = target: T2, Sentrin-specific protease 8 (Homo sapiens, UniProt Q96LD8); experiment: SENP8 protease inhibitors, SAR follow-up, biochemical, luminescence (AID 504501); assay type: functional
T2 sequence (Q96LD8 whole entry): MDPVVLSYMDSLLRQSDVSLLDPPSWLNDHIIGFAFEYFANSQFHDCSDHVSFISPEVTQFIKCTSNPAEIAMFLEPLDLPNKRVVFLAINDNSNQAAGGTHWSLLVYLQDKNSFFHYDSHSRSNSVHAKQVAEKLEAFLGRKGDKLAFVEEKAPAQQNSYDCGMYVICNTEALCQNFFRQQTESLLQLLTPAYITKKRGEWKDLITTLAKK

Caspase-3 [18] = target: T3, Caspase-3 (Homo sapiens, UniProt P42574); experiment: caspase-3 inhibitors as off-family protease, SAR follow-up, selectivity assay for SENP protease inhibitor project, biochemical, luminescence, set 2 (AID 588599); assay type: functional
T3 sequence (P42574 whole entry): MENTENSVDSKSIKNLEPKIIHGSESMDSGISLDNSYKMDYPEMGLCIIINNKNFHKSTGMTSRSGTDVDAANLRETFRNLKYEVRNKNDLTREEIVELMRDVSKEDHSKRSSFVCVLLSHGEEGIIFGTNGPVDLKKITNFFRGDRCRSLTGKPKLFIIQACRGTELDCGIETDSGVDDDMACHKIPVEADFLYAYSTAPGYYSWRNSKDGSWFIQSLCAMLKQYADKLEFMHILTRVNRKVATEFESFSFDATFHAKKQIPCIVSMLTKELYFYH

[19] = target: T2, Sentrin-specific protease 8; experiment: SENP8 protease inhibitors, SAR follow-up, biochemical, luminescence, set 2 (AID 588601); assay type: functional
Caspase-3 [20] = target: T3, Caspase-3; experiment: SAR Analysis of small molecule inhibitors of Sentrin-specific proteases (SENPs) using a Caspase-3 Selectivity assay. [Related pubchem assays (depositor defined):AID2540, AID2599, AID434973, AID489001]; assay type: functional
[21] = target: T4, Sentrin-specific protease 7 (Homo sapiens, UniProt Q9BQF6); experiment: SENP7 protease inhibitors, SAR follow-up, biochemical, luminescence, set 2 (AID 588600); assay type: functional
T4 sequence (Q9BQF6 whole entry): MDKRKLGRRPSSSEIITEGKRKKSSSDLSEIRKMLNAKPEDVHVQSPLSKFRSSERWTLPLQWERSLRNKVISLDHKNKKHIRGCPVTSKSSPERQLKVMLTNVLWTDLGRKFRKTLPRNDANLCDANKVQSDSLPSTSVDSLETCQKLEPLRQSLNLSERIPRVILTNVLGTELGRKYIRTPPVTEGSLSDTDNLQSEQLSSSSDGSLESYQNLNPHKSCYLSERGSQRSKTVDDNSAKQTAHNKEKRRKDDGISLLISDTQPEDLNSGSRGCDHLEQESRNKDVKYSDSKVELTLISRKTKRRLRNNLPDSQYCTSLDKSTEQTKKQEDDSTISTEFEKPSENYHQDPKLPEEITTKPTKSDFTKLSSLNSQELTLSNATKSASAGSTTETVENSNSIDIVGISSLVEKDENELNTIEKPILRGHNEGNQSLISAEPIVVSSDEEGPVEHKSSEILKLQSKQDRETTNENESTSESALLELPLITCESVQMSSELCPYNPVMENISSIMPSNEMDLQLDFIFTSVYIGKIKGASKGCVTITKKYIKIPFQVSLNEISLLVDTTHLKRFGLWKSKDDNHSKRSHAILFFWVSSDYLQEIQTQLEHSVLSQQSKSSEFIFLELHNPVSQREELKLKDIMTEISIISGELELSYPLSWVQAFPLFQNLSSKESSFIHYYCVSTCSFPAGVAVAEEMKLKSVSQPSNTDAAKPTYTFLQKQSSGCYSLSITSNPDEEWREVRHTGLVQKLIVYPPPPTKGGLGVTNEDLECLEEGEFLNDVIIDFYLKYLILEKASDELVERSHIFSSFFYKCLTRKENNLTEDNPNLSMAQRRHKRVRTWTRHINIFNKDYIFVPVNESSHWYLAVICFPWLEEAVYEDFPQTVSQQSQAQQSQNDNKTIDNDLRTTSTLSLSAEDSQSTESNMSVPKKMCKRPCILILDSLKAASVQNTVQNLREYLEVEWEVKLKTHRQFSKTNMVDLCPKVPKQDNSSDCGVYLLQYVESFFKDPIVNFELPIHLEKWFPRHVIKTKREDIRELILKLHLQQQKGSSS

[22] = target: T5, Sentrin-specific protease 6 (Homo sapiens, UniProt Q9GZR1); experiment: SAR Analysis of small molecule inhibitors of Sentrin-specific protease 6 (SENP6) using a Luminescent assay. [Related pubchem assays (depositor defined):AID2582, AID2599]; assay type: functional
T5 sequence (Q9GZR1 whole entry): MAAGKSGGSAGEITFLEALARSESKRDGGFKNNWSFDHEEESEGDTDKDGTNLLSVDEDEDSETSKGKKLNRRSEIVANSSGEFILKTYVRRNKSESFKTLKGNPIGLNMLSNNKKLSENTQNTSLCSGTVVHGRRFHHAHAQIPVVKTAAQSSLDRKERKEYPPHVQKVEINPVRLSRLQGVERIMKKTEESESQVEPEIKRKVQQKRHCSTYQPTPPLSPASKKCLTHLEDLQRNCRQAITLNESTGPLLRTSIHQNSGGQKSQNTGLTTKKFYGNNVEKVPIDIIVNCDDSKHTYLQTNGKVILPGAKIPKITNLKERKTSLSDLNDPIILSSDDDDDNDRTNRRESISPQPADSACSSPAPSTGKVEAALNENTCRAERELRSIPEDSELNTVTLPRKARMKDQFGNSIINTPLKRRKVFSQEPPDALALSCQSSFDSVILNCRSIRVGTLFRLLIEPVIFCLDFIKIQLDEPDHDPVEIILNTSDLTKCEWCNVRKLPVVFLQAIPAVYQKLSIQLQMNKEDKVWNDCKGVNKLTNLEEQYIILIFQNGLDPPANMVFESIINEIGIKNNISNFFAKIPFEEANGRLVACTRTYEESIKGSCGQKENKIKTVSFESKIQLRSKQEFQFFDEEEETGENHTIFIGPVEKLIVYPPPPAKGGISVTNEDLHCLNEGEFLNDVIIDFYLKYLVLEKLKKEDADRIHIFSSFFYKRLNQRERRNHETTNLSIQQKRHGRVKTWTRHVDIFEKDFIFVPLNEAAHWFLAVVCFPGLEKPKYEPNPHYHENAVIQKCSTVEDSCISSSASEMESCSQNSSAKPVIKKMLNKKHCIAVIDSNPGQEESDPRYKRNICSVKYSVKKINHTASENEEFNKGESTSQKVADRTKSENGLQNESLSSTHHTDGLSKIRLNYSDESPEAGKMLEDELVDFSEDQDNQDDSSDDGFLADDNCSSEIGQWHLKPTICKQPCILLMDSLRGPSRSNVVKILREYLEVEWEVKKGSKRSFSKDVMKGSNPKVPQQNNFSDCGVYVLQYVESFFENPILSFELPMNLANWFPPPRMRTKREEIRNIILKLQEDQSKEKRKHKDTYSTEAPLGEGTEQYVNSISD

[23] = target: T5, Sentrin-specific protease 6; experiment: SENP6 protease inhibitors, SAR follow-up, biochemical, luminescence, set 2 (AID 588598); assay type: functional
[24] = target: T4, Sentrin-specific protease 7; experiment: SENP7 protease inhibitors, SAR follow-up, biochemical, luminescence (AID 504497); assay type: functional

Sequence of Latent membrane protein 1 (P03230 whole entry): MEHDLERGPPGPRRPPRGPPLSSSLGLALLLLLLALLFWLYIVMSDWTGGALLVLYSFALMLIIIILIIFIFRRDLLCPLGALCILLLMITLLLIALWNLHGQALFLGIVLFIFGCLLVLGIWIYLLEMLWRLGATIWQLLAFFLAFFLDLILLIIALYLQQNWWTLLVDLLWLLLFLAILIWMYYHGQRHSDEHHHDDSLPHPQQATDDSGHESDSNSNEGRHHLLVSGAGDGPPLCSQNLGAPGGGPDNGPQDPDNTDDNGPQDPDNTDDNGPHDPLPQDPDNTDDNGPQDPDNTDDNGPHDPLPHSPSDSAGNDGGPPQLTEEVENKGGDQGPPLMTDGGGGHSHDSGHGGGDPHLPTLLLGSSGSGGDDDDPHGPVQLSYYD
Sequence of Mothers against decapentaplegic homolog 3 (P84022 whole entry): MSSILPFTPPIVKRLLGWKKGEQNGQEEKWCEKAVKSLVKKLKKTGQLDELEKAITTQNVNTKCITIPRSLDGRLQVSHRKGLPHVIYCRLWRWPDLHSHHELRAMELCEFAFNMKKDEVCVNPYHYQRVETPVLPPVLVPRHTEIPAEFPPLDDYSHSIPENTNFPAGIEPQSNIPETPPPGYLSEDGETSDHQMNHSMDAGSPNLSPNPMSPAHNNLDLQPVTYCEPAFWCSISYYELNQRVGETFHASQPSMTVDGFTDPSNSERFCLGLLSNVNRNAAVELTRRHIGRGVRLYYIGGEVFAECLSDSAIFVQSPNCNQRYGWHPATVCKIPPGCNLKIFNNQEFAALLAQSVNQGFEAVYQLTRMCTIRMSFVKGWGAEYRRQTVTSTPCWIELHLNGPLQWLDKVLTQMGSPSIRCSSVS

CCOC(=O)c1c2c(n(C)c1C)C(=O)C(=O)c1ccc(Br)cc1-2
EC50 [1]: 6.23 µM (active)
EC50 (BJ [2]): 4.88 µM (active)
EC50 [3]: 8.25 µM (active)
CC50 (Vero): 6.53 µM (active)
EC50 [4]: 3.58 µM (active)
EC50 (BJ [5]): 8.06 µM (inconclusive)
IC50 [6]: 10.4 µM (active)
EC50 (BJ [7]): 5.56 µM (inconclusive)
EC50 [8]: 5.41 µM (active)
AC50 (HEK293): 2.51 µM (active)
IC50 [9]: 0.797 µM (active)
AC50 [10]: 41.1 µM (active)
EC50 (BJ [11]): 0.52 µM (active)
AC50 [12]: 1.01 µM (active)
AC50 [13]: 3.95 µM (active)
AC50 [14]: 1.6 µM (active)
AC50 [15]: 4.34 µM (active)

O=c1oc2ccccc2c(Nc2cc(Cl)cc(Cl)c2)c1[N+](=O)[O-]
AC50 [16]: 31.2 µM (active)

Fc1cccc(F)c1-c1nc(/C=C/c2ccccc2)no1
IC50 [17]: 15 µM (active)
IC50 (Caspase-3 [18]): 18 µM (active)
IC50 [19]: 6.98 µM (active)
IC50 (Caspase-3 [20]): 20 µM (active)
IC50 [21]: 8.02 µM (active)
IC50 [22]: 14 µM (active)
IC50 [23]: 6.72 µM (active)
IC50 [24]: 5.5 µM (active)

— ChEMBL document CHEMBL1201862, “PubChem BioAssay data set” (2004)
